Values quoted from earlier work in patent US20040247689A1, “Process for preparing a pharmaceutical active ingredient with high specific surface area” (priority 2003, published 2004).

In the case of `OCc1cc(C(O)CNCCCCCCOCCCCc2ccccc2)ccc1O` (centres unmarked) [salmeterol xinafoate], the solubility in chloroform (chloroform) is given as “slightly soluble”, the solubility in ethanol (ethanol) is given as “slightly soluble” and the solubility in isopropanol (isopropanol) is given as “slightly soluble”. For the same molecule, the solubility in methanol (methanol) was “freely soluble” and the solubility in water (water) was “sparingly soluble”.
